This note sets out measurements from paper PMC9740098, “In Vitro Evaluation of the Interaction of Seven Biologically Active Components in Anemarrhenae rhizoma with P-gp” (Molecules, 2022).

In data set [1] the target is T1, P-gp (Homo sapiens, UniProt P08183). As to the kind of experiment: Bidirectional transport assay of single components (substrate assay), with or without verapamil. In kind it is in vitro ADME. Conditions: dog; for efflux ratio at 2 h: n = 3, read-out: ER (efflux ratio); for Papp A→B at 2 h / Papp B→A at 2 h: n = 3. The protocol: (§1) Before experiments, cell monolayers were washed twice with HBSS and equilibrated with HBSS for 30 min at 37 °C. HBSS containing different components was added to either the apical or basolateral chamber (donor chamber), and blank HBSS was added to the opposite chamber (receiver chamber). The total volume is 0.5 mL in the apical chamber and 1.5 mL in the basolateral chamber. Aliquots (100 μL) were taken from the acceptor chamber every 30 min for 2 h, and the same volume of HBSS was replenished. The transport samples were prepared using solid-phase extraction (SPE). Bond Elut C18 cartridge (Agilent, Santa Clara, CA, USA, 100 mg, 1 mL, 100/pk) was preconditioned with 1 mL methanol and 1 mL deionized water. Both 100 μL of bidirectional assay sample solution and 20 μL of IS solution was loaded onto the SPE cartridge, and the eluent that passed through the SPE cartridge was discarded. After washing with 1 mL of deionized water, 1 mL of the eluent solvent was introduced into the SPE cartridge for collection. The target solutions were concentrated by nitrogen blowing and re-dissolved. The amount of seven constituents of AR was determined by LC-MS/MS. The apparent permeability (Papp) of each substrate across MDCK-MDR1 cell monolayers in both the basolateral to apical (B > A) and apical to basolateral (A > B) directions were calculated using the following formula: […]
T1 sequence (P08183 whole entry): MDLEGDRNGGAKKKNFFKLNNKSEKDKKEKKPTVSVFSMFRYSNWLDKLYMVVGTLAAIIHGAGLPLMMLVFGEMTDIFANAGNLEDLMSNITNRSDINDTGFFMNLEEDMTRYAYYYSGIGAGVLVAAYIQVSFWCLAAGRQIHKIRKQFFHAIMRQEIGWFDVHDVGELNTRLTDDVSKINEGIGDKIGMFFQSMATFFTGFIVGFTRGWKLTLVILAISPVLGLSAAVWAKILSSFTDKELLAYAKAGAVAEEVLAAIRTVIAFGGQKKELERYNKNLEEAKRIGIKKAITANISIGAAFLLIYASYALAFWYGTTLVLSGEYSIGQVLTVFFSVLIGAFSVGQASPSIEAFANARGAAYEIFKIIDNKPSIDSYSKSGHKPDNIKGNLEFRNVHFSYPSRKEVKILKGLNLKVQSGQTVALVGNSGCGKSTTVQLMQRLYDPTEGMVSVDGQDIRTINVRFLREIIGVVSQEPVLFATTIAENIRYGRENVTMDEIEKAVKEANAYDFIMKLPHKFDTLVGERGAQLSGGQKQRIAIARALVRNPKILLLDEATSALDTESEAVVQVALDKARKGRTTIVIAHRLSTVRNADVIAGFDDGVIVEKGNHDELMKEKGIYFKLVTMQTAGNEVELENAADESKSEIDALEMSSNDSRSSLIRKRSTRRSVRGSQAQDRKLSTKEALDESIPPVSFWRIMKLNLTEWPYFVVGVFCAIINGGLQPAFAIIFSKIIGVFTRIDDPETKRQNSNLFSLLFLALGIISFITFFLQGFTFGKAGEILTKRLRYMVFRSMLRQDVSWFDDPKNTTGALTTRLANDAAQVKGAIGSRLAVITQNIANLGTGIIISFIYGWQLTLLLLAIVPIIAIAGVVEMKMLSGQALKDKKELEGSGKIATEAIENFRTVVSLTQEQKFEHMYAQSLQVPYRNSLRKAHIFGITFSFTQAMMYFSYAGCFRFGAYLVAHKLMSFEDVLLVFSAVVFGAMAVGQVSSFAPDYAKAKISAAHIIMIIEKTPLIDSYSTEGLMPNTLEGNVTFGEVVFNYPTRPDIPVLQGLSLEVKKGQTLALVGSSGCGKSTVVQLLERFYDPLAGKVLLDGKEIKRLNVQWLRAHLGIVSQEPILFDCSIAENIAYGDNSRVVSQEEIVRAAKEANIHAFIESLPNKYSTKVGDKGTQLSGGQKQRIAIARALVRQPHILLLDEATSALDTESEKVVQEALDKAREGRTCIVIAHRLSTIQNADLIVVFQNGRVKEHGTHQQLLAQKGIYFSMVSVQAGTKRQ

Data set [2] deals with T1, P-gp. In words: Bidirectional transport assay of Rh-123 (P-gp inhibition). The class given is cell-based. Conditions: for Papp (AP-BL) of rhodamine-123 in combination with the compound / Papp (BL-AP) of rhodamine-123 in combination with the compound: dog, MDCK-MDR1, 120 min. The protocol: The HBSS containing 10 μM Rh-123 and different AR components as described in the above Section 4.6.1 were prepared. Additionally, The HBSS containing 10 μM Rh-123 and 0.625 μM valspodar were prepared as the positive control. Before experiments, cell monolayers were washed twice with HBSS and equilibrated with HBSS for 30 min at 37 °C. HBSS containing AR component and Rh-123 was added to either the apical or basolateral chamber (donor chamber), and HBSS containing AR component was added to the opposite chamber (receiver chamber). The total volume is 0.5 mL in the apical chamber and 1.5 mL in the basolateral chamber. Aliquots (100 μL) were taken from the acceptor chamber at 15 min, 30 min, 60 min, 90 min, and 120 min, and the same volume of blank HBSS was replenished. The positive control group was treated as above. The apparent permeability (Papp) of each substrate across MDCK-MDR1 cell monolayers in both the basolateral to apical (B > A) and apical to basolateral (A > B) directions were calculated using the following formula: […]

The target in data set [3] is T1, P-gp. As to the kind of experiment: Bidirectional transport assay of AR extract (seven components quantified). The class given is in vitro ADME. Conditions: dog; for Papp A→B at 2 h / Papp B→A at 2 h: component given as AR extract (10 mg/mL in HBSS). How it is done: as §1, with “The HBSS containing 10 mg/mL AR extract was prepared. Before” for “Before”, “AR extract” for “different components”

The subject of data set [4] is MDCK-MDR1 monolayer cell model. As to the kind of experiment: Permeability assay validating the MDCK-MDR1 monolayer cell model. In kind it is in vitro ADME. Particulars: in 120 min. From the text:
In this study, an MDCK-MDR1 monolayer cell model was established.

Setting [5] is: MDCK-MDR1, Single Component Group, Papp(BL-AP)/Papp(AP-BL).
The mark [6] stands for this setting: MDCK-MDR1, with verapamil (concentration not stated), Single Component + Verapamil Group.
The mark [7] stands for this setting: Single Component Group, MDCK-MDR1, 2.0 µM TAIII, 1.6 μM TBII, 4.7 μM MGF, 4.7 μM IMGF, 3.4 μM NMGF, 1.2 μM SSG, 3.9 μM BHI.
[8] abbreviates: Single Component Group, MDCK-MDR1.
Where [9] appears, read: MDCK-MDR1, AR Extract Group, n = 3, read-out: ER (efflux ratio).
Where [10] appears, read: MDCK-MDR1, Single Component + Verapamil Group.

Molecules are shown by their SMILES.

One may read the Papp A→B as the apparent permeability from the apical to the basolateral side of a cell layer. Broadly, the Papp B→A is the apparent permeability from the basolateral to the apical side of a cell layer. `COc1ccc(-c2oc3c(CC=C(C)C)c(O)cc(O)c3c(=O)c2O[C@@H]2O[C@@H](C)[C@H](O)[C@@H](O)[C@H]2O)cc1` [BHI, baohuoside I]: the figures for the efflux ratio at 2 h at P-gp [1] (setting [5]) and at P-gp [1] (setting [6]) were 2.26 and 1.08, respectively. Also, the Papp A→B at 2 h on P-gp [1] (setting [7]) came to 0.24 ×10⁻⁶ cm/s; on P-gp [3] (MDCK-MDR1, n = 3), 0.155 ×10⁻⁶ cm/s. The Papp B→A at 2 h stood at 0.72 ×10⁻⁶ cm/s at P-gp [1] (setting [8]) and 0.298 ×10⁻⁶ cm/s on P-gp [3] (MDCK-MDR1, n = 3). Besides, on P-gp [2], the “Papp (AP-BL) of rhodamine-123 in combination with the compound” value (“Papp (AP-BL)” for short) is 1.73 ×10⁻⁶ cm/s. In addition, on P-gp [2], the “Papp (BL-AP) of rhodamine-123 in combination with the compound” value (from here on “Papp (BL-AP)”) worked out at 2.53 ×10⁻⁶ cm/s.

On to `O=c1c2cc(O)c(O)cc2oc2cc(O)c([C@@H]3O[C@H](CO)[C@@H](O)[C@H](O)[C@H]3O)c(O)c12` [MGF, mangiferin], for which the efflux ratio at 2 h on P-gp [1] (setting [5]) was above 2; on P-gp [1] (setting [6]) it was 0.53; on P-gp [3] (setting [9]), 0.48. In addition, the apparent permeability from apical to basolateral (Papp A→B) at 2 h at P-gp [1] (setting [7]) is 0.606 ×10⁻⁶ cm/s; at P-gp [3] (MDCK-MDR1, n = 3) it was 0.586 ×10⁻⁶ cm/s. In addition, the Papp B→A at 2 h was determined as 1.35 ×10⁻⁶ cm/s on P-gp [1] (setting [8]) and 0.283 ×10⁻⁶ cm/s on P-gp [3] (MDCK-MDR1, n = 3). Besides, the “Papp (AP-BL)” value at P-gp [2] came to 1.88 ×10⁻⁶ cm/s. For the same molecule, on P-gp [2], the “Papp (BL-AP)” value stood at 2.36 ×10⁻⁶ cm/s.

Take `C[C@@H](CC[C@@]1(O)O[C@H]2C[C@H]3[C@@H]4CC[C@@H]5C[C@@H](O[C@@H]6O[C@H](CO)[C@H](O)[C@H](O)[C@H]6O[C@@H]6O[C@H](CO)[C@@H](O)[C@H](O)[C@H]6O)CC[C@]5(C)[C@H]4CC[C@]3(C)[C@H]2[C@@H]1C)CO[C@@H]1O[C@H](CO)[C@@H](O)[C@H](O)[C@H]1O` [TBII, timosaponin BII]: the efflux ratio at 2 h was above 2 at P-gp [1] (setting [5]), 0.65 on P-gp [1] (setting [6]) and 0.83 at P-gp [3] (setting [9]). Also, the Papp A→B at 2 h stood at 0.719 ×10⁻⁶ cm/s on P-gp [1] (setting [7]) and 1.81 ×10⁻⁶ cm/s on P-gp [3] (MDCK-MDR1, n = 3). Further, the Papp B→A at 2 h at P-gp [1] (setting [8]) was found to be 1.67 ×10⁻⁶ cm/s; on P-gp [3] (MDCK-MDR1, n = 3), 1.5 ×10⁻⁶ cm/s. Also, at P-gp [2], the “Papp (AP-BL)” value was determined as 1.85 ×10⁻⁶ cm/s. Moreover, the “Papp (BL-AP)” value at P-gp [2] was determined as 2.34 ×10⁻⁶ cm/s.

On to `O=C([O-])c1ccccc1-c1c2ccc(=O)cc-2oc2cc([O-])ccc12.[Na+].[Na+]` [fluorescein sodium], for which, in data set [4], the Pe value is reported as 0.78 ± 0.02 × 10^−6 cm/s.

Turning to `C[C@H]1CC[C@@]2(OC1)O[C@H]1C[C@H]3[C@@H]4CC[C@@H]5C[C@@H](O[C@@H]6O[C@H](CO)[C@H](O)[C@H](O)[C@H]6O[C@@H]6O[C@H](CO)[C@@H](O)[C@H](O)[C@H]6O)CC[C@]5(C)[C@H]4CC[C@]3(C)[C@H]1[C@@H]2C` [TAIII, timosaponin AIII], the efflux ratio at 2 h on P-gp [1] (setting [5]) was above 2; on P-gp [1] (setting [6]), 0.88; at P-gp [3] (setting [9]), 0.63. Further, the apparent permeability from apical to basolateral (Papp A→B) at 2 h on P-gp [1] (setting [7]) was 0.955 ×10⁻⁶ cm/s; at P-gp [3] (MDCK-MDR1, n = 3), 3.05 ×10⁻⁶ cm/s. Moreover, the Papp B→A at 2 h at P-gp [1] (setting [8]) worked out at 2.16 ×10⁻⁶ cm/s; at P-gp [3] (MDCK-MDR1, n = 3), 1.94 ×10⁻⁶ cm/s. Moreover, the “Papp (AP-BL)” value on P-gp [2] came out at 1.78 ×10⁻⁶ cm/s. Moreover, at P-gp [2], the “Papp (BL-AP)” value came to 2.17 ×10⁻⁶ cm/s.

As to `O=c1c2cc(O)c(O)cc2oc2c([C@@H]3O[C@H](CO)[C@@H](O)[C@H](O)[C@H]3O)c(O)cc(O)c12` [IMGF, isomangiferin], the efflux ratio at 2 h at P-gp [1] (setting [5]) was below 2; on P-gp [1] (setting [6]) it was 0.55; at P-gp [3] (setting [9]), 0.91. Moreover, the apical-to-basolateral permeability (Papp A→B) at 2 h at P-gp [1] (setting [7]) amounted to 0.0651 ×10⁻⁶ cm/s; on P-gp [3] (MDCK-MDR1, n = 3), 0.0546 ×10⁻⁶ cm/s. Further, the Papp B→A at 2 h on P-gp [1] (setting [8]) was 0.0702 ×10⁻⁶ cm/s; on P-gp [3] (MDCK-MDR1, n = 3) it was 0.0495 ×10⁻⁶ cm/s.

`C[C@H]1CC[C@@]2(OC1)O[C@H]1C[C@H]3[C@@H]4CC[C@@H]5C[C@@H](O)CC[C@]5(C)[C@H]4CC[C@]3(C)[C@H]1[C@@H]2C` [SSG, sarsasapogenin]: the Papp A→B at 2 h is 0.0904 ×10⁻⁶ cm/s on P-gp [1] (setting [10]); 0.0374 ×10⁻⁶ cm/s at P-gp [1] (MDCK-MDR1, Single Component Group, 2.0 µM TAIII, 1.6 μM TBII, 4.7 μM MGF, 4.7 μM IMGF, 3.4 μM NMGF, 1.2 μM SSG, 3.9 μM BHI); 0.0398 ×10⁻⁶ cm/s on P-gp [3] (MDCK-MDR1, n = 3). In addition, the Papp B→A at 2 h at P-gp [1] (setting [10]) is 0.0374 ×10⁻⁶ cm/s; at P-gp [1] (MDCK-MDR1, Single Component Group), 0.0566 ×10⁻⁶ cm/s; at P-gp [3] (MDCK-MDR1, n = 3) it was 0.0347 ×10⁻⁶ cm/s. The efflux ratio at 2 h at P-gp [1] (setting [10]) is 0.41; on P-gp [1] (setting [5]), below 2; at P-gp [3] (AR Extract Group, MDCK-MDR1, n = 3, read-out: ER (efflux ratio)) it was 0.87. For the same molecule, on P-gp [2] (10 μM Rh-123 with AR component or 0.625 μM valspodar, control ER 2.46, MDCK-MDR1, n = 3), the “ER (efflux ratio) of rhodamine-123 in combination with the compound” value is reported as “no statistical difference”.

On to `O=c1c2cc(O[C@@H]3O[C@H](CO)[C@@H](O)[C@H](O)[C@H]3O)c(O)cc2oc2cc(O)c([C@@H]3O[C@H](CO)[C@@H](O)[C@H](O)[C@H]3O)c(O)c12` [NMGF, neomangiferin], for which the efflux ratio at 2 h was below 2 on P-gp [1] (setting [5]), 0.52 on P-gp [1] (setting [6]) and 0.67 on P-gp [3] (setting [9]). The Papp A→B at 2 h on P-gp [1] (setting [7]) turned out to be 0.121 ×10⁻⁶ cm/s; at P-gp [3] (MDCK-MDR1, n = 3) it was 0.0976 ×10⁻⁶ cm/s. Besides, the basolateral-to-apical permeability (Papp B→A) at 2 h at P-gp [1] (setting [8]) was found to be 0.137 ×10⁻⁶ cm/s; on P-gp [3] (MDCK-MDR1, n = 3), 0.0654 ×10⁻⁶ cm/s.
